Experimental data as given in US20240043429A1, “TRIAZOLO PYRAZINE COMPOUND AND USE THEREOF” (TECHNODERMA MEDICINES, INC., priority 2020, published 2024).

Assays:
Format in all cases: biochemical
Tyk2 = Tyk2 (Homo sapiens, UniProt P29597); experiment: Enzyme activity inhibition of JAK kinases (ULight-JAK substrate, Eu-antibody): Tyk2; conditions: ATP 10 μM, 1 hour reaction at room temperature; read-out: Tyk2 half-maximum inhibitory concentration
Description: (§1) 1× test buffer: The test buffer was prepared, and diluted with deionized water (deionized water: test buffer=9:1) to obtain the 1×test buffer. 4× kinase solution: JAK kinase was diluted 4-fold with the kinase reaction buffer to a final concentration (JAK1: 80 nM, JAK2/JAK3/Tyk2: 4 nM). 4×substrate solution: ULight™-JAK (Tyr1023) substrate was diluted with the kinase reaction buffer to 200 nM (final concentration: 50 nM). 4× ATP solution: ATP was diluted 4-fold with the kinase reaction buffer to a final concentration (JAK1: 160 μM, JAK2/JAK3/Tyk2: 40 μM). 4× test compound solution: The test compound was dissolved with DMSO to prepare 10 mM stock solutions, and diluted 3-fold serially to required concentrations, 10 concentrations were set for each compound, and final concentrations of the test compound ranged from 10 μM to 0.5 nM. 4× enzyme reaction stop solution: 1× test buffer was used dissolve EDTA to 40 mM (final concentration of EDTA: 10 mM). 4× test antibody solution: Eu-labeled test antibody (anti-phosphotyrosine (PT66)) was diluted with 1× test buffer to 8 nM (final concentration of antibody: 2 nM). […] After incubation of the antibody, a signal value of each well was measured via Envision plate reader. […]

JAK1 = JAK1 (Homo sapiens, UniProt P23458); experiment: Enzyme activity inhibition of JAK kinases (ULight-JAK substrate, Eu-antibody): JAK1; conditions: JAK1 20 nM, ATP 40 μM, 2 hours reaction at room temperature; read-out: JAK1 half-maximum inhibitory concentration
JAK1, sequence (P23458 whole entry): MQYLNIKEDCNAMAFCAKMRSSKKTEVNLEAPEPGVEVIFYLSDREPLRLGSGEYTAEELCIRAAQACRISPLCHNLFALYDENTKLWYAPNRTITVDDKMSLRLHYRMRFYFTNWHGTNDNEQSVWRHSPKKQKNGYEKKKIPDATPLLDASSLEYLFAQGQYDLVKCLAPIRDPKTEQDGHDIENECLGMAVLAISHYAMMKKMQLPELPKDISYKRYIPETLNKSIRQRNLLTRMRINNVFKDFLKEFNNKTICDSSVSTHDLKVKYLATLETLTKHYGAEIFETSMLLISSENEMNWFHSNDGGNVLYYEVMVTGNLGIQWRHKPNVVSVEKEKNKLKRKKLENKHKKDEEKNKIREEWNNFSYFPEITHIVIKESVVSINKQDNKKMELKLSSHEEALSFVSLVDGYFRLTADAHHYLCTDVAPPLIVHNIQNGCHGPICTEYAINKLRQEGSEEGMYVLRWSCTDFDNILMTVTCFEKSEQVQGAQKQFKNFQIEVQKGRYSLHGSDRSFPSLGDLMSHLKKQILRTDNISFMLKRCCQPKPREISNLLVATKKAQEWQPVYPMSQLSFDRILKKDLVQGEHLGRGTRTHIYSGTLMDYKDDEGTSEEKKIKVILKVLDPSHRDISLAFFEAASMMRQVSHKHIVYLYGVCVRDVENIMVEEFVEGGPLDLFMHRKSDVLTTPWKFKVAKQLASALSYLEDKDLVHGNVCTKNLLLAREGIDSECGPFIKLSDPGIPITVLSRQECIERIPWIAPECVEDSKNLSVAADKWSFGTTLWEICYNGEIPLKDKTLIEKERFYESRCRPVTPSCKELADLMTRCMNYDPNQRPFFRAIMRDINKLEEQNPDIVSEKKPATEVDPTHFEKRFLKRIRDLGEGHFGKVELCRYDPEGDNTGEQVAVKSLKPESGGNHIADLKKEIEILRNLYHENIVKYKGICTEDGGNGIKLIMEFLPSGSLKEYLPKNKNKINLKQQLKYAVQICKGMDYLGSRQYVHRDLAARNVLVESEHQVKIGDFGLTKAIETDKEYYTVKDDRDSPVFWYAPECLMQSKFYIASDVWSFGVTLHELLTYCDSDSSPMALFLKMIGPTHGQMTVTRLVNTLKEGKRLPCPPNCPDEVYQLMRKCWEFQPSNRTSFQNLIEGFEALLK
Description: as §1

JAK2 = JAK2 (Homo sapiens, UniProt O60674); experiment: Enzyme activity inhibition of JAK kinases (ULight-JAK substrate, Eu-antibody): JAK2; conditions: JAK2 1 nM, ATP 10 μM, 1 hour reaction at room temperature; read-out: JAK2 half-maximum inhibitory concentration
JAK2, sequence (O60674 whole entry): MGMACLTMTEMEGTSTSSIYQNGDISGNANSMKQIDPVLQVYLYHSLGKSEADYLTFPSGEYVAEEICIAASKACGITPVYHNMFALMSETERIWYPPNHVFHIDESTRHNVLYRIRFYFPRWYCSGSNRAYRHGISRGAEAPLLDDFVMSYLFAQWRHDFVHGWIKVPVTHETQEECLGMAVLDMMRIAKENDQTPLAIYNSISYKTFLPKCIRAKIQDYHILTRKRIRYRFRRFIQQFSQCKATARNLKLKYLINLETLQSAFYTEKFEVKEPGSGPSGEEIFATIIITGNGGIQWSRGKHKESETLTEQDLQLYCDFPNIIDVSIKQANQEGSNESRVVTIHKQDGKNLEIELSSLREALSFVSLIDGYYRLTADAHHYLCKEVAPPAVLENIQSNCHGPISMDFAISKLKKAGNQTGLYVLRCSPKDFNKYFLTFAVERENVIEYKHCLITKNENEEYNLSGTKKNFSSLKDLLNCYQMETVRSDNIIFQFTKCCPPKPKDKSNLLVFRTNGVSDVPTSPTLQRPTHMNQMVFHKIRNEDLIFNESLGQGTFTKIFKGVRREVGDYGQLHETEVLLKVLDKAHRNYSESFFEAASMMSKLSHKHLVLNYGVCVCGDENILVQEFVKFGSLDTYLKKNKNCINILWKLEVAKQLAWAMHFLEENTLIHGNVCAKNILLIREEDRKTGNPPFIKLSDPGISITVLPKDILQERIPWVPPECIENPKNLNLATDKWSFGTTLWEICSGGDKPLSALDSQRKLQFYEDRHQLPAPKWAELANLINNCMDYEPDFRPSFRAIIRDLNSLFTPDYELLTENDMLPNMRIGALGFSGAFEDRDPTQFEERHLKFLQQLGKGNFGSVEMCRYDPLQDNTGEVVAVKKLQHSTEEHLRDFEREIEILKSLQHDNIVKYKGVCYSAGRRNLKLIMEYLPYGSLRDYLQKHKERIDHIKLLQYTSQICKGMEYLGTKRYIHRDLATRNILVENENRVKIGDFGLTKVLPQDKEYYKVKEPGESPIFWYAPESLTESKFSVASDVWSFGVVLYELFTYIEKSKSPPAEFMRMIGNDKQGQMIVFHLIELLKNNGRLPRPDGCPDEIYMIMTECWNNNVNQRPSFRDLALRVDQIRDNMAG
Description: as §1

Tyk2, sequence (P29597 whole entry): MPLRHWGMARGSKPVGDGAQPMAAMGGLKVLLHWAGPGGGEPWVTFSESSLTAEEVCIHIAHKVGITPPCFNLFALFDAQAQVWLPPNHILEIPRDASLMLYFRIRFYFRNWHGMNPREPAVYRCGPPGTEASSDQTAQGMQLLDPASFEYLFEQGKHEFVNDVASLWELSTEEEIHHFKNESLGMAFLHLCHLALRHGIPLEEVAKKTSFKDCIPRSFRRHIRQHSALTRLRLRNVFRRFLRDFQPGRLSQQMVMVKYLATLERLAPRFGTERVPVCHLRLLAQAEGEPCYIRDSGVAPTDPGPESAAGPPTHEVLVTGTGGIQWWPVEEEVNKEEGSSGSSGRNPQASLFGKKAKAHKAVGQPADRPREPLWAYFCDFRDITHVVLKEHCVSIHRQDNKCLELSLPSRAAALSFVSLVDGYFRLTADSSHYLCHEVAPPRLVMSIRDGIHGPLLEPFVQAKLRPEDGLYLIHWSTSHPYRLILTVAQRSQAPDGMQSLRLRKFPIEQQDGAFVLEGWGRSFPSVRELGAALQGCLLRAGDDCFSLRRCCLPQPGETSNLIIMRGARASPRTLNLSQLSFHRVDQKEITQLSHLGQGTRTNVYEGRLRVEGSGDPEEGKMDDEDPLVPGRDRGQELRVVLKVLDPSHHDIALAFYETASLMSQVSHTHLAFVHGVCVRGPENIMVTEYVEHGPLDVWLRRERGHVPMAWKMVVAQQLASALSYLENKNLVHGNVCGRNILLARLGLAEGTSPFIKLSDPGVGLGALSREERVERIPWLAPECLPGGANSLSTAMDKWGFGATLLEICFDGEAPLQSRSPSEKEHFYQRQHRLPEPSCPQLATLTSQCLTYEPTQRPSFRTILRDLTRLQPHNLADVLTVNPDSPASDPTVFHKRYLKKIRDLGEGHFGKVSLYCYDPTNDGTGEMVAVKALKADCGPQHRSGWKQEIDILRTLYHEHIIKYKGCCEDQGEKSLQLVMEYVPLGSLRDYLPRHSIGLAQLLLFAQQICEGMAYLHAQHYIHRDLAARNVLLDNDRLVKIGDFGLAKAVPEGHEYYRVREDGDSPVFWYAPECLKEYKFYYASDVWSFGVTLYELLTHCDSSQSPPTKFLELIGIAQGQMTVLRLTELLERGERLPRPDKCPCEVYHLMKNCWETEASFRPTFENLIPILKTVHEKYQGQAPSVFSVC

IC50 (Tyk2)	IC50 (JAK1)	IC50 (JAK2)	Structure (SMILES)
14 nM	1210 nM	138 nM	Cn1cc(-c2cn3ncnc3c(-c3ccn([C@]4(CC#N)C[C@H](C#N)C4)c3)n2)cn1 [TDM-181021, (1s,3s)-3-(Cyanomethyl)-3-(3-(6-(1-Methyl-1H-Pyrazol-4-Yl)-[1,2,4]Triazolo[1,5-a]Pyrazin-8-Yl)-1H-Pyrrol-1-Yl)Cyclobutane-1-Carbonitrile]
111 nM		2420 nM	Cn1cc(-c2cn3ncnc3c(-c3ccn([C@]4(CC#N)C[C@@H](C#N)C4)c3)n2)cn1 [TDM-181020, (1r,3r)-3-(cyanomethyl)-3-(3-(6-(1-methyl-1H-pyrazol-4-yl)-[1,2,4]triazolo[1,5-a]pyrazin-8-yl)-1H-pyrrol-1-yl)cyclobutane-1-carbonitrile]
